Some test systems named below: SNB-75; T47D; EKVX; NCI-H226; COLO 205; A498; NCI-H522; CCRF-CEM; MDA-MB-231; SK-OV-3; HCT-15; Malme-3M; HOP-62; SF-539; OVCAR-3; LOX IMVI; UO-31; UACC-62; BT-549; SR.
Assay in all cases: growth of human tumour cells (NCI), 48 h

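Interpolation was linear, between the two tested concentrations surrounding the appropriate level; five concentrations were tested over 48 hours in 96-well plates. Here, GI50 denotes the concentration required for 50% inhibition of growth.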 Active and inactive are the calls of the source. Cut-off read from the data, not from the text of the source: active = GI50 up to about 1.1 µM and inactive = higher. Where only a bound is given, the exact number is not on record here.

Regarding `CCOC(=O)c1cc2cc(N(C(C)=O)C(C)=O)ccc2s1`, the GI50 with SNB-75 is 10.1 µM (inactive); in the assay on T47D it was 18.3 µM (inactive); in the assay on EKVX, 20.6 µM (inactive); with NCI-H226 it was 20.4 µM (inactive); with COLO 205 it was 33.7 µM (inactive); in the assay with A498, 13.8 µM (inactive). Moreover, the GI50 with NCI-H522 is 16.8 µM (inactive); in the assay with CCRF-CEM, 21.9 µM (inactive); with MDA-MB-231 it was 23 µM (inactive); in the assay on SK-OV-3, 30.4 µM (inactive); in the assay on HCT-15, 36.1 µM; in the assay on Malme-3M, 16.6 µM (inactive). The GI50 in the assay on HOP-62 was 48.1 µM (inactive); in the assay with SF-539, 27 µM (inactive); with OVCAR-3, 30.8 µM (inactive); in the assay with LOX IMVI, 33.5 µM (inactive); in the assay with UO-31 it was 27.7 µM (inactive); with UACC-62, 31.6 µM (inactive). For the same compound, in the assay with BT-549, the GI50 is 29.9 µM (inactive).
With `CCCCCCCCC[C@@H]1C[C@@H]2CCC3C(C(=O)OCCCCNC(=O)OCc4ccccc4)=C(C)N=C(N1)N32` (some centres undefined), the GI50 was 4.59 µM (inactive) in the assay with SNB-75; 2.57 µM (inactive) in the assay with T47D; 2.72 µM (inactive) with EKVX; 3.58 µM (inactive) in the assay on NCI-H226; 1.62 µM (inactive) in the assay with COLO 205; 4.66 µM (inactive) with A498. In addition, the GI50 in the assay with NCI-H522 is 2.52 µM (inactive); with CCRF-CEM it was 2.52 µM (inactive); with MDA-MB-231, 2.28 µM (inactive); in the assay with SK-OV-3 it was 3.2 µM (inactive); with HCT-15 it was 2.81 µM; in the assay with HOP-62 it was 3.75 µM (inactive). The GI50 with SF-539 is 3.86 µM (inactive); in the assay on OVCAR-3, 4.04 µM (inactive); in the assay with LOX IMVI it was 2.09 µM (inactive); in the assay with UO-31, 4.49 µM (inactive); with UACC-62, 3.44 µM (inactive); with BT-549, 3.67 µM (inactive).
For the compound `COc1cc(/C=C2\C(=O)N(c3cccc(Cl)c3)C(c3ccccc3)S2(=O)=O)cc(OC)c1OC` (centres undefined), the GI50 was 41.3 µM (inactive) in the assay on T47D; > 100 µM (inactive) with EKVX; 89.7 µM (inactive) in the assay on NCI-H226; > 100 µM (inactive) in the assay on COLO 205; > 100 µM (inactive) in the assay with A498; 17.8 µM (inactive) in the assay with NCI-H522. Also, the GI50 in the assay with CCRF-CEM is 18.2 µM (inactive); in the assay on MDA-MB-231, > 100 µM (inactive); with SK-OV-3, 58.1 µM (inactive); with HCT-15, 54.3 µM; with Malme-3M, 43.4 µM (inactive); in the assay on HOP-62, 85.7 µM (inactive). For the same compound, the GI50 in the assay on SF-539 is 43.3 µM (inactive); in the assay on OVCAR-3, 48.8 µM (inactive); in the assay on LOX IMVI, 22.2 µM (inactive); in the assay on UO-31, 32.3 µM (inactive); in the assay with UACC-62, 32.7 µM (inactive); with BT-549, > 100 µM (inactive).
As for `CN(CCCN(C)CCc1ccc(Cl)c(Cl)c1)CCCN1CCCC1`, the GI50 with SNB-75 was 2.72 µM (inactive); in the assay with T47D, 2.34 µM (inactive); in the assay with EKVX, 3.35 µM (inactive); in the assay on NCI-H226, 2.56 µM (inactive); in the assay on COLO 205, 2.28 µM (inactive); with A498, 1.76 µM (inactive). In addition, the GI50 is 1.56 µM (inactive) with NCI-H522; 0.458 µM (active) in the assay on CCRF-CEM; 1.33 µM (inactive) with MDA-MB-231; 10.2 µM (inactive) in the assay on SK-OV-3; 2.31 µM with HCT-15; 2.16 µM (inactive) in the assay with Malme-3M. For the same compound, the GI50 with HOP-62 was 2.86 µM (inactive); with SF-539 it was 2.88 µM (inactive); with OVCAR-3, 3.72 µM (inactive); with LOX IMVI, 1.52 µM (inactive); with UO-31, 1.23 µM (inactive); in the assay on UACC-62 it was 1.93 µM (inactive). The GI50 with BT-549 is 6.03 µM (inactive).
As to `C[N+](C)(CCNc1ccc(NCC[N+](C)(C)Cc2ccc([N+](=O)[O-])cc2)c2c1C(=O)c1c(O)ccc(O)c1C2=O)Cc1ccc([N+](=O)[O-])cc1`, the GI50 with SNB-75 is > 50 µM (inactive); in the assay with T47D it was > 50 µM (inactive); in the assay on EKVX, > 50 µM (inactive); in the assay on COLO 205 it was 18.7 µM (inactive); in the assay on A498, > 50 µM (inactive); with NCI-H522, > 50 µM (inactive). In addition, the GI50 in the assay on CCRF-CEM was > 50 µM (inactive); in the assay on MDA-MB-231, 2.65 µM (inactive); in the assay with SK-OV-3, > 50 µM (inactive); in the assay on HCT-15, 35.8 µM; with Malme-3M, 30 µM (inactive); in the assay with HOP-62 it was > 50 µM (inactive). The GI50 was 19.1 µM (inactive) in the assay on SF-539; > 50 µM (inactive) in the assay on OVCAR-3; 4.65 µM (inactive) in the assay with LOX IMVI; 20.4 µM (inactive) in the assay with UO-31; > 50 µM (inactive) in the assay with UACC-62; 26.5 µM (inactive) with BT-549.
With `Cc1cc(-c2ccccc2)nc2oc(=O)n(C)c12`, the GI50 in the assay on T47D was 94.6 µM (inactive); in the assay on EKVX, 42.8 µM (inactive); with NCI-H226, > 100 µM (inactive); in the assay with COLO 205, > 100 µM (inactive); with A498, > 100 µM (inactive); in the assay on NCI-H522 it was > 100 µM (inactive). For the same compound, the GI50 in the assay with CCRF-CEM was > 100 µM (inactive); with MDA-MB-231, 64.9 µM (inactive); in the assay on SK-OV-3, > 100 µM (inactive); with HCT-15, greater than 100 µM; in the assay on Malme-3M, > 100 µM (inactive); in the assay with HOP-62, > 100 µM (inactive). Besides, the GI50 in the assay with OVCAR-3, in the assay on LOX IMVI, in the assay with UO-31, with UACC-62 and in the assay with BT-549 was > 100 µM (inactive) in each case.
As to `O=S(=O)(N1CCCCN(S(=O)(=O)C(F)(F)F)CCCN(S(=O)(=O)C(F)(F)F)CCCN(S(=O)(=O)C(F)(F)F)CCCCN(S(=O)(=O)C(F)(F)F)CCCN(S(=O)(=O)C(F)(F)F)CCC1)C(F)(F)F`, the GI50 was 37.9 µM (inactive) with SNB-75; 77.4 µM (inactive) in the assay on T47D; 72.3 µM (inactive) with EKVX; 81.8 µM (inactive) in the assay on NCI-H226; > 100 µM (inactive) in the assay with COLO 205; 52.6 µM (inactive) in the assay with A498. The GI50 in the assay on NCI-H522 is 35.2 µM (inactive); in the assay with CCRF-CEM, > 100 µM (inactive); in the assay on MDA-MB-231 it was > 100 µM (inactive); with SK-OV-3 it was > 100 µM (inactive); with HCT-15, 68.4 µM; with Malme-3M it was 23.2 µM (inactive). Also, the GI50 in the assay on HOP-62 is 29.7 µM (inactive); in the assay on SF-539, 28.9 µM (inactive); in the assay with OVCAR-3, 38.4 µM (inactive); in the assay with LOX IMVI it was 80.5 µM (inactive); in the assay with UO-31, > 100 µM (inactive); in the assay with UACC-62, 64.6 µM (inactive). Also, the GI50 with BT-549 was 23.7 µM (inactive).
Turning to `CCOC(=O)c1c[nH]c(C(=O)OCC)c1-c1cccn1-c1ccccc1`, the GI50 in the assay on SNB-75 was 7.06 µM (inactive); in the assay with T47D, 28.1 µM (inactive); in the assay on EKVX it was 24.8 µM (inactive); in the assay with NCI-H226, 15.1 µM (inactive); with COLO 205 it was 21.3 µM (inactive); in the assay with A498, 27 µM (inactive). The GI50 with NCI-H522 was 13 µM (inactive); with CCRF-CEM it was 17.9 µM (inactive); in the assay on MDA-MB-231 it was 28.6 µM (inactive); with SK-OV-3, 28.4 µM (inactive); in the assay on HCT-15, 30.4 µM; in the assay with Malme-3M, 10.8 µM (inactive). The GI50 is 18.2 µM (inactive) in the assay with HOP-62; 16.8 µM (inactive) in the assay with OVCAR-3; 16.9 µM (inactive) with LOX IMVI; 18.4 µM (inactive) in the assay with UO-31; 17.4 µM (inactive) with UACC-62; 25.3 µM (inactive) with BT-549.
Take `NS(=O)(=O)c1ccc(NC(=S)N/C=C2\C(=O)Oc3ccccc3C2=O)cc1`: the GI50 was 4.2 µM (inactive) in the assay on SNB-75; 41.9 µM (inactive) in the assay on T47D; 34.1 µM (inactive) in the assay with EKVX; 12.6 µM (inactive) in the assay with NCI-H226; 40.5 µM (inactive) with COLO 205; 20.5 µM (inactive) in the assay on A498. Further, the GI50 in the assay with NCI-H522 was 23.2 µM (inactive); in the assay with CCRF-CEM it was 37.9 µM (inactive); in the assay with MDA-MB-231 it was 16 µM (inactive); in the assay on SK-OV-3, 26.4 µM (inactive); in the assay with HCT-15, 39.2 µM; with HOP-62, 20.8 µM (inactive). Besides, the GI50 in the assay with SF-539 is 44 µM (inactive); in the assay on OVCAR-3, 27.2 µM (inactive); with LOX IMVI, 33.6 µM (inactive); with UO-31 it was 17.6 µM (inactive); in the assay with UACC-62, 34.8 µM (inactive); in the assay on BT-549, 34.7 µM (inactive).
On to `CC(C)(C)[Si](C)(C)OCC1OC(n2ccc(N)nc2=O)C(O[Si](C)(C)C(C)(C)C)C1O[Si](C)(C)C(C)(C)C` (centres undefined), for which the GI50 in the assay on SNB-75 was 3.79 µM (inactive); in the assay on T47D it was 2.7 µM (inactive); in the assay on EKVX, 3.22 µM (inactive); with NCI-H226, 1.36 µM (inactive); with COLO 205, 3.09 µM (inactive); in the assay on NCI-H522, 1.83 µM (inactive). Further, the GI50 in the assay on MDA-MB-231 was 10.8 µM (inactive); with SK-OV-3, 2.75 µM (inactive); with HCT-15, 2.23 µM; in the assay with SR, 2.73 µM (inactive); with Malme-3M, 1.8 µM (inactive); in the assay on HOP-62, 2.06 µM (inactive). Also, the GI50 was 1.73 µM (inactive) in the assay on OVCAR-3; 1.71 µM (inactive) in the assay on LOX IMVI; 1.71 µM (inactive) in the assay on UO-31; 1.94 µM (inactive) with UACC-62; 1.62 µM (inactive) in the assay with BT-549.
Regarding `O=c1cc(N2CCCC2)[nH]c(=O)n1-c1ccc(F)cc1`, the GI50 in the assay on SNB-75 was > 100 µM (inactive); with T47D it was > 100 µM (inactive); in the assay on EKVX, > 100 µM (inactive); with NCI-H226, 20.3 µM (inactive); in the assay on COLO 205, > 100 µM (inactive); in the assay with A498 it was > 100 µM (inactive). Further, the GI50 with NCI-H522 was > 100 µM (inactive); in the assay on CCRF-CEM, > 100 µM (inactive); with MDA-MB-231, > 100 µM (inactive); with SK-OV-3, > 100 µM (inactive); with HCT-15 it was greater than 100 µM; with Malme-3M, > 100 µM (inactive). The GI50 in the assay on HOP-62, with SF-539, in the assay with OVCAR-3, in the assay on LOX IMVI, in the assay on UACC-62 and in the assay on BT-549 was > 100 µM (inactive) in each case.

These data come from ChEMBL document CHEMBL1201862, “PubChem BioAssay data set” (2004).
